The results in this text go back to US9598440B2, “Inhibitors of IRAK4 activity” (MERCK SHARP & DOHME CORP., priority 2012, dated 2017).

A word on the IC50: it is the concentration that gives 50% inhibition. The low end stands for greater potency in that assay, the high end for weaker potency in that assay.

In this experiment the target is IRAK4 (Homo sapiens (Human), UniProt Q9NWZ3). The experiment in a line: Determination of IRAK4 kinase activity (IMAP fluorescence polarization, phosphorylation of fluorescent peptide substrate). The note with it: 0.5 nM GST tagged IRAK4, 100 nM peptide substrate RP7030, 100 μM ATP, 30 minutes at 25° C. It counts as biochemical. In outline: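 GST-tagged IRAK4 (0.5 nM) phosphorylated 100 nM fluorescent peptide substrate with 100 µM ATP in Tris-HCl pH 7.2, 1 mM MgCl2, 1 mM DTT, 0.01% Tween 20 for 30 min at 25 °C. Phosphorylation read by IMAP nanoparticle binding as fluorescence polarization increase.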
IRAK4, sequence (Q9NWZ3 whole entry): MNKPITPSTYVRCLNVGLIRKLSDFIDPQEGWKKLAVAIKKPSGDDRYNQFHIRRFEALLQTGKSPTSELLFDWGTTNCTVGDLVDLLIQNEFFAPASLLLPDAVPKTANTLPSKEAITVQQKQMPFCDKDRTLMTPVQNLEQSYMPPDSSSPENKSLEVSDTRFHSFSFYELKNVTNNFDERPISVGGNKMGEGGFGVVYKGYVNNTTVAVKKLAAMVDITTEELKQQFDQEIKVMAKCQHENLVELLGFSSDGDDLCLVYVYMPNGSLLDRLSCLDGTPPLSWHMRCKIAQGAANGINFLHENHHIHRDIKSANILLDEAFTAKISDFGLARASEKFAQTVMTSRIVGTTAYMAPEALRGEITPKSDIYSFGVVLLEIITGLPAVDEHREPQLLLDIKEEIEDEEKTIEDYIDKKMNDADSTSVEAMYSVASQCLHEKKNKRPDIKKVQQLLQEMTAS
For orientation: Fluorescence polarisation rises when a labelled molecule tumbles more slowly, as on binding a larger partner.
As to `Cc1cc(Nc2cc(N[C@H]3C[C@@H](C(C)(C)O)[C@H](O)[C@@H]3O)c(-c3nc(C)cs3)cn2)cc(C)n1` (stereo in doubt) [Example 162, (1S,2R,3S,5R)-3-((2-((2,6-dimethylpyridin-4-yl)amino)-5-(4-methylthiazol-2-yl)pyridin-4-yl)amino)-5-(2-hydroxypropan-2-yl)cyclopentane-1,2-diol], the IC50 is 37 nM.
Compound `COc1ccc(Nc2ncc(-c3nc4ccccc4s3)c(N[C@@H]3C[C@H](CO)[C@@H](O)[C@H]3O)n2)cc1` [Example 10, (1R,2S,3R,5R)-3-((5-(benzo[d]thiazol-2-yl)-2-((4-methoxyphenyl)amino)pyrimidin-4-yl)amino)-5-(hydroxymethyl)cyclopentane-1,2-diol] yielded an IC50 of 14 nM.
Compound `COc1cc(Nc2ncc(-c3nc(-c4ccccc4)cs3)c(N[C@@H]3C[C@H](CO)[C@@H](O)[C@H]3O)n2)ccn1` [Example 80, 6-(((1R,2S,3R,4R)-2,3-dihydroxy-4-(hydroxymethyl)cyclopentyl)amino)-2-((2-methoxypyridin-4-yl)amino)-5-(4-phenylthiazol-2-yl)pyrimidine] showed an IC50 of 98 nM.
As for `Cc1cc(Nc2ncc(-c3ccc4ccccc4n3)c(N[C@@H]3C[C@H](CO)[C@@H](O)[C@H]3O)n2)cc(C)n1` [Example 59, 6-(((1R,2S,3R,4R)-2,3-dihydroxy-4-(hydroxymethyl)cyclopentyl)amino)-2-((2,6-dimethylpyridin-4-yl)amino)-5-(quinolin-2-yl)pyrimidine], the IC50 was 1 nM.
Then `Cc1csc(-c2cnc(NC3CCC3)nc2N[C@@H]2C[C@H](C(C)(C)O)[C@@H](O)[C@H]2O)n1` [Example 134, (1R,2S,3R,5S)-3-((2-(cyclobutylamino)-5-(4-methylthiazol-2-yl)pyrimidin-4-yl)amino)-5-(2-hydroxypropan-2-yl)cyclopentane-1,2-diol], with 270 nM.
Next, `Cc1nc(Nc2ccnc(F)c2)nc(N[C@@H]2C[C@H](CO)[C@@H](O)[C@H]2O)c1-c1nc2ccccc2s1` [Example 86, (1R,2S,3R,5R)-3-((5-(benzo[d]thiazol-2-yl)-2-((2-fluoropyridin-4-yl)amino)-6-methylpyrimidin-4-yl)amino)-5-(hydroxymethyl)cyclopentane-1,2-diol]: 430 nM; `COc1cc(Nc2cc(N[C@@H]3C[C@H](C(C)(C)O)[C@@H](O)[C@H]3O)c(-c3nc4ccccc4s3)cn2)ccn1` [Example 160, (1R,2S,3R,5S)-3-((5-(benzo[d]thiazol-2-yl)-2-((2-methoxypyridin-4-yl)amino)pyridin-4-yl)amino)-5-(2-hydroxypropan-2-yl)cyclopentane-1,2-diol]: 126 nM; `Nc1ncc(-c2cc3ccccc3s2)c(N[C@@H]2C[C@H](CO)[C@@H](O)[C@H]2O)n1` [Example 46, (1R,2S,3R,5R)-3-((2-amino-5-(benzo[b]thiophen-2-yl)pyrimidin-4-yl)amino)-5-(hydroxymethyl)cyclopentane-1,2-diol]: 1610 nM.
Next, `OC[C@H]1C[C@@H](Nc2nc(Nc3cccnc3)ncc2-c2nc(-c3ccccc3)cs2)[C@H](O)[C@@H]1O` [Example 82, 6-(((1R,2S,3R,4R)-2,3-dihydroxy-4-(hydroxymethyl)cyclopentyl)amino)-5-(4-phenyithiazol-2-yl)-2-(pyridin-3-ylamino)pyrimidine]: 3210 nM.
For the compound `OC[C@H]1C[C@@H](Nc2nc(NC3CCOCC3)ncc2-c2nc3ccccc3s2)[C@H](O)[C@@H]1O` [Example 17, (1R,2S,3R,5R)-3-((5-(benzo[d]thiazol-2-yl)-2-((tetrahydro-2H-pyran-4-yl)amino)pyrimidin-4-yl)amino)-5-(hydroxymethyl)cyclopentane-1,2-diol], half-maximal inhibition (IC50) required 1080 nM. Compared with the last compound, the IC50 is about 3-fold lower.
Next, `Nc1ncc(-c2nc3cnccc3s2)c(N[C@@H]2C[C@H](CO)[C@@H](O)[C@H]2O)n1` [Example 20, (1R,2S,3R,5R)-3-((2-amino-5-(thiazolo[4,5-c]pyridin-2-yl)pyrimidin-4-yl)amino)-5-(hydroxymethyl)cyclopentane-1,2-diol]: 24 nM; `COc1cc(Nc2ncc(-c3nc4cnccc4s3)c(N[C@@H]3C[C@H](CO)[C@@H](O)[C@H]3O)n2)ccn1` [Example 71, 6-(((1R,2S,3R,4R)-2,3-dihydroxy-4-(hydroxymethyl)cyclopentyl)amino)-2-((2-methoxypyridin-4-yl)amino)-5-(thiazolo[4,5-c]pyridin-2-yl)pyrimidine]: 7 nM; `Cc1cc(Nc2ncc(-c3nc4ccccc4s3)c(N[C@@H]3C[C@H](CO)[C@@H](O)[C@H]3O)n2)ccn1` [Example 31, (1R,2S,3R,5R)-3-((5-(benzo[d]thiazol-2-yl)-2-((2-methylpyridin-4-yl)amino)pyrimidin-4-yl)amino)-5-(hydroxymethyl)cyclopentane-1,2-diol]: 1.2 nM.
Next, `CC(C)n1ccc(Nc2ncc(-c3ccc4ccccc4n3)c(N[C@@H]3C[C@H](CO)[C@@H](O)[C@H]3O)n2)cc1=O` [Example 62, 6-(((1R,2S,3R,4R)-2,3-dihydroxy-4-(hydroxymethyl)cyclopentyl)amino)-2-((1-isopropyl-2-oxo-1,2-dihydropyridin-4-yl)amino)-5-(quinolin-2-yl)pyrimidine]: 154 nM; `Cc1cc(Nc2ncc(-c3cncs3)c(N[C@@H]3C[C@H](CO)[C@@H](O)[C@H]3O)n2)cc(C)n1` [Example 40, (1R,2S,3R,5R)-3-((2-((2,6-dimethylpyridin-4-yl)amino)-5-(thiazol-5-yl)pyrimidin-4-yl)amino)-5-(hydroxymethyl)cyclopentane-1,2-diol]: 64 nM; `CC(C)Oc1cc(Nc2ncc(-c3nc4ccccc4s3)c(N[C@@H]3CC(C(C)(C)O)[C@@H](O)[C@H]3O)n2)ccn1` (stereo in doubt) [Example 116, 5-(benzo[d]thiazol-2-yl)-6-(((1R,2S,3R,4R)-2,3-dihydroxy-4-(2-hydroxypropan-2-yl)cyclopentyl)amino)-2-((2-isopropoxypyridin-4-yl)amino)pyrimidine]: 19 nM.
Then `OC[C@H]1C[C@@H](Nc2nc(Nc3ccc(OC(F)(F)F)cc3)ncc2-c2nc3ccccc3s2)[C@H](O)[C@@H]1O` [Example 42, (1R,2S,3R,5R)-3-((5-(benzo[d]thiazol-2-yl)-2-((4-(trifluoromethoxy)phenyl)amino)pyrimidin-4-yl)amino)-5-(hydroxymethyl)cyclopentane-1,2-diol], with 552 nM.
Regarding `OC[C@H]1C[C@@H](Nc2nc(NC3COC3)ncc2-c2nc3ccccc3s2)[C@H](O)[C@@H]1O` [Example 12, (1R,2S,3R,5R)-3-((5-(benzo[d]thiazol-2-yl)-2-(oxetan-3-ylamino)pyrimidin-4-yl)amino)-5-(hydroxymethyl)cyclopentane-1,2-diol], the IC50 was 236 nM.
The compound `Cc1nc(N2CCC(N)CC2)nc(N[C@@H]2C[C@H](CO)[C@@H](O)[C@H]2O)c1-c1nc2ccccc2s1` [Example 92, (1R,2S,3R,5R)-3-((2-(4-aminopiperidin-1-yl)-5-(benzo[d]thiazol-2-yl)-6-methylpyrimidin-4-yl)amino)-5-(hydroxymethyl)cyclopentane-1,2-diol] displayed an IC50 of 11400 nM. This IC50 is about 48-fold higher than that of the compound before.
Consider `OC[C@H]1C[C@@H](Nc2nc(Nc3cccnc3)ncc2-c2nc3ccncc3s2)[C@H](O)[C@@H]1O` [Example 78, 6-(((1R,2S,3R,4R)-2,3-dihydroxy-4-(hydroxymethyl)cyclopentyl)amino)-2-(pyridin-3-ylamino)-5-(thiazolo[5,4-c]pyridin-2-yl)pyrimidine], for which the half-inhibitory concentration (IC50) stood at 13 nM.
Regarding `Cc1cc(Nc2nc(C)c(-c3nc4ccccc4s3)c(N[C@@H]3C[C@H](CO)[C@@H](O)[C@H]3O)n2)cc(C)n1` [Example 87, (1R,2S,3R,5R)-3-((5-(benzo[d]thiazol-2-yl)-2-((2,6-dimethylpyridin-4-yl)amino)-6-methylpyrimidin-4-yl)amino)-5-(hydroxymethyl)cyclopentane-1,2-diol], the midpoint of inhibition, the IC50, lay at 119 nM.
Then `Cc1cc(Nc2ncc(-c3nc4ccncc4s3)c(N[C@@H]3C[C@H](CO)[C@@H](O)[C@H]3O)n2)cc(C)n1` [Example 68, (1R,2S,3R,5R)-3-((2-((2,6-dimethylpyridin-4-yl)amino)-5-(thiazolo[5,4-c]pyridin-2-yl)pyrimidin-4-yl)amino)-5-(hydroxymethyl)cyclopentane-1,2-diol], with 0.2 nM.
Then `Cc1cc(Nc2cc(N[C@H]3C[C@@H](C(C)(C)O)[C@H](O)[C@@H]3O)c(-c3ccc4ccccc4n3)cn2)cc(C)n1` (stereo in doubt) [Example 164, (1S,2R,3 S,5R)-3-((2-((2,6-dimethylpyridin-4-yl)amino)-5-(quinolin-2-yl)pyridin-4-yl)amino)-5-(2-hydroxypropan-2-yl)cyclopentane-1,2-diol], with 3 nM; and `COc1cc(Nc2nc(C)c(-c3nc4ccccc4s3)c(N[C@@H]3C[C@H](CO)[C@@H](O)[C@H]3O)n2)ccn1` [Example 105, (1R,2S,3R,5R)-3-((5-(benzo[d]thiazol-2-yl)-2-((2-methoxypyridin-4-yl)amino)-6-methylpyrimidin-4-yl)amino)-5-(hydroxymethyl)cyclopentane-1,2-diol], with 93 nM.
Consider `Nc1ncc(-c2ccccn2)c(N[C@@H]2C[C@H](CO)[C@@H](O)[C@H]2O)n1` [Example 38, (1R,2S,3R,5R)-3-((2-amino-5-(pyridin-2-yl)pyrimidin-4-yl)amino)-5-(hydroxymethyl)cyclopentane-1,2-diol], for which the IC50 was found to be 623 nM.
Next, `OC[C@H]1C[C@@H](Nc2nc(Nc3ccc(O)cc3)ncc2-c2nc3ccccc3s2)[C@H](O)[C@@H]1O` [Example 2, (1R,2S,3R,5R)-3-((5-(benzo[d]thiazol-2-yl)-2-((4-hydroxyphenyl)amino)pyrimidin-4-yl)amino)-5-(hydroxymethyl)cyclopentane-1,2-diol]: 5.8 nM.
